Test results as given in patent US20240189278A1, “NOVEL COMPOUNDS AND METHODS FOR INCREASING KLOTHO GENE EXPRESSION” (Klotho Therapeutics, Inc., priority 2017, published 2024).

Key:
[1] = tested on: Klotho gene expression; assay: Luciferase reporter assay to evaluate Klotho gene expression changes; type: cell-based; settings: overnight incubation, luciferase luminescence
Method: Table 2. Luciferase Reporter Assay to Evaluate Klotho Gene Expression Changes
HEK293 cells/pKlotho_Luc in suspension (20 μl/well, density 0.25×10^6 cells/ml) were dispensed into assay-ready 384-well tissue culture treated plates (plates (BD BioCoat Poly-D-Lys coated, Cat.354661) preloaded with 1000× stock of test compounds in DMSO (20 nL/well, 10 concentration points, 3× dilutions from 20 uM to 0.001 uM). Growth medium: DMEM, 1% FBS, Pen/Strep, 600 ug/ml G418. Negative control: DMSO. Positive control: 2 uM Compound H from King, et. al. Biochem. J. (2012) 441, 453-461. Cells were incubated in CO2 incubator overnight. At the end of the incubation time, 20 ul/well of the luciferase assay solution (Steady-Luc Firefly HTS Assay Biotium, Cat 30028) were added to the plate and mixed on a VibraTranslator (Union Scientific). Plates were incubated for 5 min at 25° C. Steady glow luminescence signal was read using a BMG Labtech PHERAstar FSX reader.

[2] = tested on: aged male Wistar rats; assay: Aged rat efficacy model, blood pressure by tail-cuff method; type: in vivo
Method: The aim of the study was to assess the efficacy of test compound in improving physiologic parameters in aged rats such as blood pressure values. The experiment included daily repeated administrations of the test compound for 14 consecutive days and follow up observations within a […] post-dosing period. Body weight (BWt) were monitored daily during the dosing period and twice a week during the post-dosing period. Blood pressure (BP) was measured on 0, 7th, 14th, 21s t and 28th day of the study. Study design, animal selection, handling and treatment were all in accordance with the CROs efficacy study protocols and Standard Operation Procedure, and the Animal Care Guidelines.
Fifteen aged male Wistar rats (22.5 months old; initial body weights ranged from 474.8 g to 672.4 g with an average body weight across the groups of 540.8 g) were randomized into two groups by body weight and systolic blood pressure: 11 animals distributed to compound 49-treated group and 4 animals—to vehicle-treated group. […]
Blood pressure was measured by the Tail-Cuff Method using the Coda Non-invasive Blood-Pressure System. Individual body weights and relative changes in body weight (compared to the appropriate weight on Day 0) were recorded.

[3] = Homo sapiens, HEK293, HEK293 cells/pKlotho_Luc

Compound	EC50 [1, 3] [nM]	EC50 ([1]; HEK293 cells/pKlotho_Luc) [nM]	Activation, % ([1]; HEK293 cells/pKlotho_Luc) [%]	Systolic blood pressure within the treated group during the study ([2]; 50 mg/kg PO daily for 14 days, 28-day study)	Systolic blood pressure, treated group vs vehicle-treated group ([2]; 50 mg/kg PO daily, Day 14)
C1=CCC(CNc2ncnc3c2ncn3C2CC2)CC1 (stereo not drawn) [Compound 1, N-[(cyclohex-3-en-1-yl)methyl]-9-cyclopropyl-9H-purin-6-amine]	60	–	149	–	–
C1=C(CCNc2ncnc3[nH]ccc23)CCCCC1 [Compound 2, N-[2-(cyclohept-1-en-1-yl)ethyl]-7H-pyrrolo[2,3-d]pyrimidin-4-amine]	70	–	94	–	–
C1=C(CCNc2cc(N3CCCC3)ncn2)CCCC1 [Compound 3]	100	–	138	–	–
Fc1ccccc1-n1ncc2c(NCCC3=CCCCC3)ncnc21 [Compound 4]	120	–	105	–	–
Fc1ccccc1-n1ncc2c(NCCC3=CCCCCC3)ncnc21 [Compound 5]	120	–	61	–	–
C1=C(CCNc2cc(N3CCCCC3)ncn2)CCCC1 [Compound 6]	140	–	98	–	–
C1=C(CCNc2ncnc3[nH]ccc23)CCCC1 [Compound 7]	160	–	150	–	–
Cc1csc2ncnc(NCCC3=CCCCC3)c12 [Compound 8]	160	–	145	–	–
C1=C(CCNc2ncnc3sccc23)CCCCC1 [Compound 9]	180	–	81	–	–
Nc1c(NCCC2=CCCCCC2)ncnc1-n1cccn1 [Compound 10]	200	–	98	–	–
Nc1c(NCCC2=CCCCC2)ncnc1-n1cccn1 [Compound 11]	210	–	125	–	–
Cc1csc2ncnc(NCCC3=CCCCCC3)c12 [Compound 12]	210	–	98	–	–
Fc1cccc2ncnc(NCCC3=CCCCC3)c12 [Compound 13]	250	–	86	–	–
N#CCCn1ncc2c(NCCC3=CCCCCC3)ncnc21 [Compound 14]	260	–	122	–	–
C1=C(CCNc2ncnc3c2cnn3-c2ccccc2)CCCC1 [Compound 15]	270	–	203	–	–
CCn1ncc2c(NCCC3=CCCCC3)ncnc21 [Compound 16]	370	–	151	–	–

Compound	EC50 [1, 3] [nM]	EC50 ([1]; HEK293 cells/pKlotho_Luc) [nM]	Activation, % ([1]; HEK293 cells/pKlotho_Luc) [%]	Systolic blood pressure within the treated group during the study ([2]; 50 mg/kg PO daily for 14 days, 28-day study)	Systolic blood pressure, treated group vs vehicle-treated group ([2]; 50 mg/kg PO daily, Day 14)
CN(CCC1CCCCC1)c1ncnc2c1ncn2C1CC1 [Compound 17]	380	–	114	–	–
Cc1cc2c(NCCC3=CCCCCC3)ncnc2s1 [Compound 18]	450	–	48	–	–
C1=CCC(CCNc2ncnc3c2ncn3C2CC2)CC1 (stereo not drawn) [Compound 19]	500	–	152	–	–
N#CCCn1ncc2c(NCCC3=CCCCC3)ncnc21 [Compound 20]	600	–	120	–	–
Cc1cc2c(NCCC3=CCCCC3)ncnc2s1 [Compound 21]	680	–	133	–	–
C1=C(CCNc2ncnc3c2cnn3-c2ccccc2)CCCCC1 [Compound 22]	770	–	96	–	–
C1=C(CCNc2ncnc3sccc23)CCCC1 [Compound 23]	850	–	133	–	–
C1=C(CCNc2ncnc3ccsc23)CCCCC1 [Compound 24]	880	–	122	–	–
CCn1ncc2c(NCCC3CC=CCC3)ncnc21 (stereo not drawn) [Compound 26]	920	–	121	–	–
C1=C(CCNc2ncnc3scnc23)CCCCC1 [Compound 27]	920	–	101	–	–
CCC1(CC)CCCN(c2ncnc3c2ncn3C2CC2)CC1 [Compound 28]	1000	–	101	–	–
C1=C(CCNc2ncnc3scnc23)CCCC1 [Compound 29]	1100	–	103	–	–
c1nc(NCCC2CCCC2)c2ncn(C3CC3)c2n1 [Compound 30]	1200	–	87	–	–
c1nc(NCCC2CCCCC2)c2ncn(C3CC3)c2n1 [Compound 31]	1100	–	109	–	–
CC(C)CCNc1ncnc2c1ncn2C1CC1 [Compound 32]	730	–	77	–	–

The next lines start with results.

EC50 [1, 3] [nM]	EC50 ([1]; HEK293 cells/pKlotho_Luc) [nM]	Compound	Activation, % ([1]; HEK293 cells/pKlotho_Luc) [%]	Systolic blood pressure within the treated group during the study ([2]; 50 mg/kg PO daily for 14 days, 28-day study)	Systolic blood pressure, treated group vs vehicle-treated group ([2]; 50 mg/kg PO daily, Day 14)
380	–	c1nc(NCC2CCCCC2)c2ncn(C3CC3)c2n1 [Compound 33]	89	–	–
2000	–	Clc1cccc(CNc2ncnc3c2ncn3C2CC2)c1 [Compound 34]	102	–	–
1500	–	CC(C)CNc1ncnc2c1ncn2C1CC1 [Compound 35]	40	–	–
830	–	c1nc(NCC2CCC2)c2ncn(C3CC3)c2n1 [Compound 36]	68	–	–
70	–	C1=C(CCNc2ncnc3c2ncn3C2CC2)CCCC1 [Compound 37]	103	–	–
340	–	C1=C(CCNc2ncnc3c2ncn3C2CC2)CCCCC1 [Compound 38]	105	–	–
3600	–	CC1(CNc2ncnc3c2ncn3C2CC2)CCCCC1 [Compound 39]	77	–	–
2900	–	CC1(CNc2ncnc3c2ncn3C2CC2)CCCC1 [Compound 40]	89	–	–
> 30000	–	c1ccc([C@@H]2C[C@H]2Nc2ncnc3c2ncn3C2CC2)cc1 [Compound 41]	–	–	–
620	–	C1=C(CCNc2ncnc3c2ncn3C2CC2)CCC1 [Compound 42]	79	–	–
> 30000	–	Clc1ccc(CNc2ncnc3c2ncn3C2CC2)cc1Cl [Compound 43]	–	–	–
23800	–	CC(C)(CNc1ncnc2c1ncn2C1CC1)C1=CCCCC1 [Compound 44]	58	–	–
13100	–	CC1(C)CCC(CNc2ncnc3c2ncn3C2CC2)CC1 [Compound 45]	59	–	–
1700	–	c1nc(NCC23CCC(CC2)CC3)c2ncn(C3CC3)c2n1 [Compound 46]	86	–	–
900	–	FC1(CNc2ncnc3c2ncn3C2CC2)CCCCC1 [Compound 47]	86	–	–
160	–	C1=CC[C@@H](CNc2ncnc3c2ncn3C2CC2)CC1 [Compound 48]	86	–	–
–	100	C1=CC[C@@H](CNc2ncnc3c2ncn3C2CC2)CC1 [Compound 49]	90	considerable decrease	Significant difference
